Data taken from patent publication US8999970B2, “Administration of an anti-obesity compound to individuals with renal impairment” (Arena Pharmaceuticals, Inc., priority 2010, dated 2015).

Assay: Adverse events in the renal impairment clinical study APD356-016
Format: in vivo, human
Text: The incidence of adverse events was not related to severity of renal impairment. Events considered possibly or probably related to lorcaserin included 1 event each of abdominal pain (moderate group), diarrhea (moderate group), dyspepsia (mild group), stomach discomfort (mild group), and worsening renal impairment (moderate group). Two events of dizziness (1 in severe group, one in ESRD group) and 3 events of headache (2 normal, 1 moderate group) were considered possibly/probably related to study drug. A summary of the Treatment Emergent Adverse Events in the APD356-016 study by renal impairment groups and relationship to study drug are listed in Table 11.

C[C@H]1CNCCc2ccc(Cl)cc21 [Lorcaserin, (R)-8-chloro-1-methyl-2,3,4,5-tetrahydro-1H-3-benzazepine]
Events of dizziness possibly/probably related (1 severe group, one ESRD group): Two
Events of headache possibly/probably related (2 normal, 1 moderate group): 3
Number (%) of Subjects Reporting AEs (End Stage (N = 8)): 1 (12.5%)
Number (%) of Subjects Reporting AEs By Maximum Intensity: Mild (End Stage (N = 8)): 1 (12.5%)
Number (%) of Subjects Reporting AEs By Maximum Intensity: Moderate (End Stage (N = 8)): 0 (0.0%)
Number (%) of Subjects Reporting AEs By Maximum Intensity: Severe (End Stage (N = 8)): 0 (0.0%)
Number (%) of Subjects Reporting AEs By Most Direct Relationship to Study Treatment: Not Related (End Stage (N = 8)): 1 (12.5%)
Number (%) of Subjects Reporting AEs By Most Direct Relationship to Study Treatment: Possible (End Stage (N = 8)): 0 (0.0%)
Number (%) of Subjects Reporting AEs By Most Direct Relationship to Study Treatment: Probable (End Stage (N = 8)): 0 (0.0%)
Number (%) of Subjects Reporting AEs By Most Direct Relationship to Study Treatment: Unlikely (End Stage (N = 8)): 0 (0.0%)
Number of AEs Reported (End Stage (N = 8)): 1
Number (%) of Subjects Reporting AEs (Mild (N = 8)): 2 (25.0%)
Number (%) of Subjects Reporting AEs By Maximum Intensity: Mild (Mild (N = 8)): 2 (25.0%)
Number (%) of Subjects Reporting AEs By Maximum Intensity: Moderate (Mild (N = 8)): 0 (0.0%)
Number (%) of Subjects Reporting AEs By Maximum Intensity: Severe (Mild (N = 8)): 0 (0.0%)
Number (%) of Subjects Reporting AEs By Most Direct Relationship to Study Treatment: Not Related (Mild (N = 8)): 0 (0.0%)
Number (%) of Subjects Reporting AEs By Most Direct Relationship to Study Treatment: Possible (Mild (N = 8)): 1 (12.5%)
Number (%) of Subjects Reporting AEs By Most Direct Relationship to Study Treatment: Probable (Mild (N = 8)): 1 (12.5%)
Number (%) of Subjects Reporting AEs By Most Direct Relationship to Study Treatment: Unlikely (Mild (N = 8)): 0 (0.0%)
Number of AEs Reported (Mild (N = 8)): 3
Number (%) of Subjects Reporting AEs (Moderate (N = 8)): 5 (62.5%)
Number (%) of Subjects Reporting AEs By Maximum Intensity: Mild (Moderate (N = 8)): 4 (50.0%)
Number (%) of Subjects Reporting AEs By Maximum Intensity: Moderate (Moderate (N = 8)): 1 (12.5%)
Number (%) of Subjects Reporting AEs By Maximum Intensity: Severe (Moderate (N = 8)): 0 (0.0%)
Number (%) of Subjects Reporting AEs By Most Direct Relationship to Study Treatment: Not Related (Moderate (N = 8)): 1 (12.5%)
Number (%) of Subjects Reporting AEs By Most Direct Relationship to Study Treatment: Possible (Moderate (N = 8)): 3 (37.5%)
Number (%) of Subjects Reporting AEs By Most Direct Relationship to Study Treatment: Probable (Moderate (N = 8)): 0 (0.0%)
Number (%) of Subjects Reporting AEs By Most Direct Relationship to Study Treatment: Unlikely (Moderate (N = 8)): 1 (12.5%)
Number of AEs Reported (Moderate (N = 8)): 9
Number (%) of Subjects Reporting AEs (Normal (N = 8)): 4 (50.0%)
Number (%) of Subjects Reporting AEs By Maximum Intensity: Mild (Normal (N = 8)): 4 (50.0%)
Number (%) of Subjects Reporting AEs By Maximum Intensity: Moderate (Normal (N = 8)): 0 (0.0%)
Number (%) of Subjects Reporting AEs By Maximum Intensity: Severe (Normal (N = 8)): 0 (0.0%)
Number (%) of Subjects Reporting AEs By Most Direct Relationship to Study Treatment: Not Related (Normal (N = 8)): 0 (0.0%)
Number (%) of Subjects Reporting AEs By Most Direct Relationship to Study Treatment: Possible (Normal (N = 8)): 1 (12.5%)
Number (%) of Subjects Reporting AEs By Most Direct Relationship to Study Treatment: Probable (Normal (N = 8)): 1 (12.5%)
Number (%) of Subjects Reporting AEs By Most Direct Relationship to Study Treatment: Unlikely (Normal (N = 8)): 2 (25.0%)
Number of AEs Reported (Normal (N = 8)): 4
Number (%) of Subjects Reporting AEs (Severe (N = 8)): 3 (37.5%)
Number (%) of Subjects Reporting AEs By Maximum Intensity: Mild (Severe (N = 8)): 3 (37.5%)
Number (%) of Subjects Reporting AEs By Maximum Intensity: Moderate (Severe (N = 8)): 0 (0.0%)
Number (%) of Subjects Reporting AEs By Maximum Intensity: Severe (Severe (N = 8)): 0 (0.0%)
Number (%) of Subjects Reporting AEs By Most Direct Relationship to Study Treatment: Not Related (Severe (N = 8)): 0 (0.0%)
Number (%) of Subjects Reporting AEs By Most Direct Relationship to Study Treatment: Possible (Severe (N = 8)): 1 (12.5%)
Number (%) of Subjects Reporting AEs By Most Direct Relationship to Study Treatment: Probable (Severe (N = 8)): 0 (0.0%)
Number (%) of Subjects Reporting AEs By Most Direct Relationship to Study Treatment: Unlikely (Severe (N = 8)): 2 (25.0%)
Number of AEs Reported (Severe (N = 8)): 4
Relation of incidence of adverse events to severity of renal impairment (human, in vivo): not related
Events of dyspepsia possibly or probably related (mild group): 1
Events of stomach discomfort possibly or probably related (mild group): 1
Events of abdominal pain possibly or probably related (moderate group): 1
Events of diarrhea possibly or probably related (moderate group): 1
Events of worsening renal impairment possibly or probably related (moderate group): 1
